These results are taken from patent publication US20050004005A1, “Methods of treating diseases responsive to Induction of Apoptosis” (priority 2003, published 2005).

Assay [1] deals with caspase cascade. The experiment in a line: Activation of the caspase cascade and induction of apoptosis in cells (earlier Cai et al. applications). It is filed as cell-based. The conditions noted are these: typically.
The test system of assay [2] is caspase cascade. The conditions noted are these: as described in Ser. No. 10/164,705 and 60/433,953; cited from earlier work.
For a further assay, the system named is cyclin D1. The experiment in a line: Realtime PCR of mRNA levels in compound-treated T47D cells. It is filed as cell-based. Particulars: 5 μM, 18 h, versus DMSO, FIG. 2. As to the method: FIG. 2: The effect of 5-(3-chlorothiophen-2-yl)-3-(5-chloro-pyridin-2-yl)-[1,2,4]-oxadiazole on mRNA levels of genes of interest. T47D cells were treated for 18 h with 5 μM of 5-(3-chlorothiophen-2-yl)-3-(5-chloro-pyridin-2-yl)-[1,2,4]-oxadiazole or DMSO and total RNA was then isolated. mRNA levels of TGFbeta, p21, cyclin D1, IGF2R, and IGFBP3 were quantitated using realtime PCR as fold change of treatment/control.
For cDNA synthesis and quantitative PCR, total RNA was extracted using the TRIzol reagent (Invitrogen Corporation, Carlsbad, Calif.) according to the manufacturer's instructions. Total RNA was quantitated, denatured, and electrophoresed in an agarose-formaidehyde gei to determine integrity of total RNA. 2 μg of total RNA was then used to make cDNA by reverse transcription using the Retroscript cDNA synthesis kit (Ambion Austin, Tex.) according to the manufacturer's instructions. Quantitative PCR was done by Sybrgreen incorporation using the Quantitect kit (Qiagen, Valencia, Calif.) on the LightCycler (Roche Molecular Biochemicals, Mannheim, Germany) using standard conditions. Data was normalized against the housekeeping gene, cyclophilin. The cells transfected with cyclophilin as a control was normalized against glyceraldehyde phosphate dehydrogenase (GAPD).

In another assay the target is T1, GST-Tip47 (Homo sapiens, UniProt O60664, I56V/V275A).
T1 construct: Full-length Tip47 cDNA was cloned into the pGEX-4T-1; made in house; host or cells: E. coli BL-21
T1 sequence (O60664 1-434 I56V/V275A): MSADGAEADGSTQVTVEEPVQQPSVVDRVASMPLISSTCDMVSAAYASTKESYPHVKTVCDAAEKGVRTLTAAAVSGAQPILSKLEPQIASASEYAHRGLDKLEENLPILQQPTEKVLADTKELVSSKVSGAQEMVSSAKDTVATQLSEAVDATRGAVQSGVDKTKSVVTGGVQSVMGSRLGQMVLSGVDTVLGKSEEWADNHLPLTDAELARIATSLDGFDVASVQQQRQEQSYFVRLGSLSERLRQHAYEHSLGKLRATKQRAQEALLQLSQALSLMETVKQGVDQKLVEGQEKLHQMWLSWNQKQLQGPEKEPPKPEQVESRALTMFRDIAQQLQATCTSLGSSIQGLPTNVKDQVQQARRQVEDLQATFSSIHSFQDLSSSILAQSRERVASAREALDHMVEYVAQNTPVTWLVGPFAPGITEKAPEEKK
The assay can be described thus: Binding of tritiated compound to GST-Tip47 immobilized on anti-GST Protein A Sepharose, scintillation counting. Particulars: 2 μM compound, 1 hour room temperature, TBS pH 8.0, FIG. 1A. The protocol:
2 μM 3-(3,5-ditritium-4-azidophenyl)-5-(3-chloro-thiophen-2-yl)-[1,2,4]-oxadiazole (Example 3) was added to either Protein A Sepharose only, Protein A Sepharose plus anti-GST antibody, anti-GST/Protein A Sepharose plus GST only, or anti-GST/Protein A Sepharose plus GST-Tip47. After TBS washes, eluate was counted on a scintillation counter.
Full-length Tip47 cDNA was cloned into the pGEX-4T-1, a glutathione S-transferase (GST) gene fusion system (Amersham, Piscataway, N.J.) using standard methods. Briefly, PCR primers to the 5′ and 3′ region of the gene were designed to contain restriction sites that allowed for the in frame cloning of Tip47 into the pGEX-4T-1 vector. Subsequent to sequence verification, the pGEX-Tip47 construct was transformed into the E.Coli BL-21 strain.
In order to perform binding studies on Tip47, GST-Tip47 was immobilized on Sepharose. To begin, 10 μg of anti-GST antibody (cat. # sc-459, rabbit polyclonal, Santa Cruz Biotechnology, Santa Cruz, Calif.) was incubated with 20 μl of protein A Sepharose (Zymed, South San Francisco, Calif.), in TBS (pH 8.0), total volume 200 μl, for 1 hour at room temperature. Beads were washed 3 times with TBS (pH 8.0). […] Eluates were added to 5 ml of scintillation cocktail and counted using ^3H protocol. […]

The next assay has as its target T2, Tip47 (Homo sapiens, UniProt O60664, I56V/V275A).
T2 construct: This supernatant is T47D cytosol; endogenous in cells; host or cells: T47D breast cancer cells
T2 sequence (O60664 1-434 I56V/V275A): T1 sequence (O60664 1-434 I56V/V275A)
The assay can be described thus: Photolabeling of T47D cytosol, immunoprecipitation with anti-Tip47, SDS-PAGE and autoradiography. It is filed as binding. The conditions noted are these: T47D cytosol labeled with 20 nM compound, UV 254 nm, anti-fibronectin as control, FIG. 1B. As to the method: T47D cytosol was labeled with 20 nM 3-(3,5-ditritium-4-azidophenyl)-5-(3-chloro-thiophen-2-yl)-[1,2,4]-oxadiazole (Example 3) and immunoprecipitated with anti-fibronectin (as a control) or anti-Tip47. The immunoprecipitated complex was subject to SDS-PAGE and autoradiography.
For immunoprecipitations, T47D cells were first washed in PBS and then resuspended in CLB Buffer (10 mM HEPES, 10 mM NaCl, 1 mM KH2PO4, 5 mM NaHCO3, 1 mM CaCl2, 0.5 mM MgCl2, 5 mM EDTA) plus 0.1% protease inhibitor cocktail (Sigma, St. Louis, Mo.). Cells were allowed to swell in 5 minutes at room temperature and then were homogenized in a tight fitting Dounce homogenizer with 50 strokes. Lysate was spun 2,200×g, 5 minutes, at 4° C. The supernatant was then spun at 100,000×g, 40 minutes at 4° C. This resulting supernatant was called T47D cytosol. Protein concentration determined by the D/C Protein Assay (Bio-Rad, Hercules, Calif.).
20 riM 3-(3,5-ditritium-4-azidophenyl)-5-(3-chloro-thiophen-2-yl)-[1,2,4]-oxadiazole (Example 3) (stock is 20 μM, 1 mCi/ml, 50 Ci/mmol) was added to 1 mg T47D cytosol in 1 ml CLB Buffer and incubated, rocking, for 30 minutes at room temperature. Lysates were then exposed to a Short Wave UV Source (254 nm) for 10 minutes.
Labeled lysates were pre-cleared with 50 μl solution of Protein A Sepharose (Zymed, South San Francisco, Calif.) for 2 hours at 4° C. […]

For the next assay, the target named is T3, Tail Interacting Protein (Homo sapiens, UniProt O60664, I56V/V275A).
T3 construct: This supernatant is T47D cytosol; endogenous in cells; host or cells: T47D breast cancer cells
T3 sequence (O60664 1-434 I56V/V275A): T1 sequence (O60664 1-434 I56V/V275A)
The assay can be described thus: Photo-affinity radiolabeling of T47D cytosol, two-dimensional gel and autoradiography. It is filed as binding. The conditions noted are these: 200 nM compound, 300 μg T47D cytosol, UV 254 nm 10 minutes. As to the method: Isolation of Tail Interacting Protein from Cell Extracts by Photo-affinity Radiolabeling: T47D breast cancer cell line was grown in RPMI 1640 medium containing 25 mM Hepes and L-glutamine (Gibco) supplemented with 10% FCS and penicillin/streptomycin. 8×10^6 T47D cells in 25 mL medium were plated on a 100 mm dish and grown overnight in RPMI medium supplemented with 10% FCS and penicillin/streptomycin. Cells were scraped with Cell lifter (Fisher) into a conical tube and centrifuged for 5 minutes at 450×g. Cells were washed one time with 1 mL PBS (1,160×g for 3 minutes) and then resuspended in 0.25 mL Cell Lysis Buffer (CLB) (10 mM HEPES, pH 7.2, 10 mM NaCl, 1 mM KH2PO4, 5 mM NaHCO3, 1 mM CaCl2, 0.5 mM MgCl2, 5 mM EDTA) plus 0.1% Protease Inhibitor Cocktail (Sigma). Cells were allowed to swell 5 minutes at room temperature and then homogenized using Dounce homogenizer and Type A pestle (tight) 50 times on ice. After centrifugation at 2,200×g, for 5 minutes, 4° C., the supernatant was spun at 108,000×g, for 40 minutes at 4° C. This supernatant is T47D cytosol. Protein concentration is determined by BioRad DC assay.
300 μg T47D cytosol in 100 μL CLB was added in the well of a 96-well plate. […]

The structures appear in SMILES notation.

Regarding `[N-]=[N+]=Nc1ccc(-c2noc(-c3sccc3Cl)n2)cc1` [3-(4-Azidophenyl)-5-(3-chloro-thiophen-2-yl)-[1,2,4]-oxadiazole], in the assay with caspase cascade [1], the “Time to induction of apoptosis in cells upon binding to TIPRAIP” value is 24 to 48 h. In addition, the “Activation of the caspase cascade and of apoptosis” value with caspase cascade [2] was “potent and highly efficacious activators of the caspase cascade”.

Take `Clc1ccc(-c2noc(-c3sccc3Cl)n2)nc1` [compound A, 5-(3-chlorothiophen-2-yl)-3-(5-chloro-pyridin-2-yl)-[1,2,4]-oxadiazole]: the “Gene expression profile: cyclin D1 mRNA level” value in the assay with cyclin D1 is recorded as “down regulation of cyclin D1”.

As to `[3H]c1cc(-c2noc(-c3sccc3Cl)n2)cc([3H])c1N=[N+]=[N-]` [Example 3, 3-(3,5 -Ditritium-4-azidophenyl)-5-(3-chloro-thiophen-2-yl)-[1,2,4]-oxadiazole], the “Binding to GST-Tip47 immobilized on α-GST-Protein A-Sepharose” value at GST-Tip47 is “binding to GST-Tip47”. The “Binding to immunoprecipitated Tip47 from cell lysates” value at Tip47 was “binding to immunoprecipitated Tip47”. Also, at Tail Interacting Protein, the “Radiolabeled protein on 2-D gel autoradiography” value was “single radiolabeled spot”.
